The values below come from patent US8222247B2, “Modulators of glucocorticoid receptor, AP-1, and/or NF-kappabeta activity and use thereof” (Bristol-Myers Squibb Company, priority 2006, dated 2012).

For this assay, the system named is AP-1 induced transcriptional activity. As to the kind of experiment: Cellular Transrepressional Assay (AP-1 luciferase reporter in A549 cell, PMA activated). It is filed as cell-based. As to conditions: pAP-1-Luc; for Emax / AP-1 Max % inh (Cellular Transrepression Assay): maximum inhibition, PMA; for Emax: read-out: AP-1 Max % inh (Cellular Transrepression Assay); for EC50: 10 ng/ml PMA, 7 hours, read-out: AP-1 EC50, nM (Cellular Transrepression Assay). On the procedure:
Cellular Transrepressional Assay
To measure the ability of test molecules to inhibit AP-1 induced transcriptional activity we utilized an A549 cell which was stably transfected with a plasmid containing 7×AP-1 DNA binding sites (pAP-1-Luc plasmid, Stratagene Co. La Jolla, Calif.) followed by the gene for luciferase. Cells were activated with 10 ng/ml of phorbol myristic acid (PMA) plus or minus test molecules for 7 hours. After 7 hours a luciferase reagent was added to measure luciferase enzymatic activity in the cell. After a 10 minute incubation of luciferase reagent with cells, luminescence was measured in a TopCount luminescence counter. Repression of AP-1 activity was calculated as the percentage decrease in the signal induced by PMA alone. Test molecules were analyzed in the concentration range from 0.1 nM to 40 μM. EC50s were determined by using standard curve fitting methods such as Excel fit (Microsoft Co.). An EC50 is the test molecule concentration at which there is a 50% repression of the maximal inhibition of transcription, i.e. a 50% reduction of AP-1 activity.

Read-outs that look alike come from different tables or passages of the source.

On to `CC(C)(C(=O)Nc1nccs1)C(c1ccccc1)c1ccc(N2CCOCC2)nc1` (single isomer, unassigned) [Example 21, 2,2-Dimethyl-3-(6-(4-morpholinyl)-3-pyridinyl)-3-phenyl-N-1,3-thiazol-2-ylpropanamide], for which, for the setting “Homo sapiens, A549, 7 h”, the Emax stood at 23.9% and the EC50 worked out at 40.5 nM.

As for `CC(C)(C(=O)Nc1nncs1)C(c1ccccc1)c1ccc(N2CCOCC2)nc1` (single isomer, unassigned) [Example 23, 2,2-Dimethyl-3-(6-(4-morpholinyl)-3-pyridinyl)-3-phenyl-N-1,3,4-thiadiazol-2-ylpropanamide], where the note is “Homo sapiens, A549, 7 h”, the Emax came to 29.4% and the EC50 came out at 142 nM.

`CCN(C)C(=O)c1ccc(-c2ccc(C(c3cccc(F)c3)C(C)C(=O)Nc3nncs3)s2)cc1` (single isomer, unassigned) [Example 98, N-ethyl-4-(5-(1-(3-fluorophenyl)-2-methyl-3-oxo-3-(1,3,4-thiadiazol-2-ylamino)propyl)-2-thienyl)-N-methylbenzamide]: the EC50 turned out to be 15.8 nM. Further, the Emax (Homo sapiens, A549, 7 h) was 55.3%.

As for `CCN(C)C(=O)c1ccc(-c2ccc(C(c3cccc(F)c3)C(C)C(=O)Nc3nncs3)s2)cc1` (single isomer, unassigned) [Example 99, N-ethyl-4-(5-(1-(3-fluorophenyl)-2-methyl-3-oxo-3-(1,3,4-thiadiazol-2-ylamino)propyl)-2-thienyl)-N-methylbenzamide], the “AP-1 Max % inh (Cellular Transrepression Assay)” value (from here on “AP-1 Max % inh”) was found to be 49.36 % inh and the EC50 turned out to be 279 nM.

Turning to `CC(C(=O)Nc1nncs1)C(c1cccc(F)c1)c1ccc(-c2ccc(C(=O)N3CCOCC3)cc2)s1` (single isomer, unassigned) [Example 100, 3-(3-fluorophenyl)-2-methyl-3-(5-(4-(4-morpholinylcarbonyl)phenyl)-2-thienyl)-N-1,3,4-thiadiazol-2-ylpropanamide], the EC50 worked out at 8.8 nM. For the same compound, the Emax (Homo sapiens, A549, 7 h) stood at 50.6%.

On to `CC(C(=O)Nc1nncs1)C(c1cccc(F)c1)c1ccc(-c2ccc(C(=O)N3CCOCC3)cc2)s1` (single isomer, unassigned) [Example 101, 3-(3-fluorophenyl)-2-methyl-3-(5-(4-(4-morpholinylcarbonyl)phenyl)-2-thienyl)-N-1,3,4-thiadiazol-2-ylpropanamide], for which the “AP-1 Max % inh” value was 51.00 % inh and the EC50 was found to be 576 nM.

As to `CC(C(=O)Nc1nncs1)C(c1cccc(F)c1)c1ccc(-c2ccc(C(=O)N(C)C)cc2)s1` (single isomer, unassigned) [Example 102, 4-(5-(1-(3-fluorophenyl)-2-methyl-3-oxo-3-(1,3,4-thiadiazol-2-ylamino)propyl)-2-thienyl)-N,N-dimethylbenzamide], the concentration giving a half-maximal response (EC50) came out at 10.6 nM. In addition, under “Homo sapiens, A549, 7 h”, the Emax turned out to be 52.6%.

Take `CC(C(=O)Nc1nncs1)C(c1cccc(F)c1)c1ccc(-c2ccc(C(=O)N(C)C)cc2)s1` (single isomer, unassigned) [Example 103, 4-(5-(1-(3-fluorophenyl)-2-methyl-3-oxo-3-(1,3,4-thiadiazol-2-ylamino)propyl)-2-thienyl)-N,N-dimethylbenzamide]: the “AP-1 Max % inh” value is 49.86 % inh and the EC50 is 879 nM.

Take `CC(C(=O)Nc1nncs1)C(c1cccc(F)c1)c1ccc(-c2ccc(C(=O)N(C)C)c(Cl)c2)s1` (single isomer, unassigned) [Example 104, 2-chloro-4-(5-(1-(3-fluorophenyl)-2-methyl-3-oxo-3-(1,3,4-thiadiazol-2-ylamino)propyl)-2-thienyl)-N,N-dimethylbenzamide]: the EC50 was 38.7 nM. The Emax (Homo sapiens, A549, 7 h) worked out at 49.5%.

For the compound `CC(C(=O)Nc1nncs1)C(c1cccc(F)c1)c1ccc(-c2ccc(C(=O)N(C)C)c(Cl)c2)s1` (single isomer, unassigned) [Example 105, 2-chloro-4-(5-(1-(3-fluorophenyl)-2-methyl-3-oxo-3-(1,3,4-thiadiazol-2-ylamino)propyl)-2-thienyl)-N,N-dimethylbenzamide], the “AP-1 Max % inh” value is given as 48.50 % inh and the EC50 was 446 nM.

For orientation: EC50 means the midpoint of the concentration-response curve.
